From PMC12416277, “Phytochemical alkaloids orchestrate immunometabolism against viral infections” (National Science Review, 2025)
Where two headings read alike, the source gives them in different places.

What was measured:
[1] = test system: H1N1; experiment: Dose-response of infectivity, H1N1 in L929 cells; format: cell-based; details: Influenza A virus
[2] = test system: A549 cells; experiment: Transcriptome analysis (RNA-seq, GO, GSEA) of compound-treated A549 cells
[3] = test system: HSV-1; experiment: microbe, parasite or virus in culture; format: cell-based, herpes simplex virus 1 (HSV-1); details: Human alphaherpesvirus 1, L929
[4] = test system: EMCV; experiment: microbe, parasite or virus in culture; format: cell-based, encephalomyocarditis virus (EMCV); details: Cardiovirus A, L929
[5] = test system: VSV; format: cell-based, vesicular stomatitis virus (VSV)
[6] = test system: EMCV; experiment: microbe, parasite or virus in culture; format: cell-based, encephalomyocarditis virus (EMCV); details: Cardiovirus A, A549
[7] = test system: HSV-1; experiment: microbe, parasite or virus in culture; format: cell-based, herpes simplex virus 1 (HSV-1); details: Human alphaherpesvirus 1, A549
[8] = test system: H1N1; experiment: Dose-response of infectivity, H1N1 in A549 cells (viral mRNA by qRT-PCR); format: cell-based; details: Influenza A virus, H1N1, A549
[9] = test system: VSV; format: in vivo, C57/BL6J mice; details: mice, VSV infection
[10] = test system: VSV; format: cell-based, vesicular stomatitis virus (VSV); remark: listed apart in the source
[11] = test system: VSV; format: cell-based, vesicular stomatitis virus (VSV); details: A549 cells pretreated before infection
[12] = test system: H1N1; experiment: H1N1 mRNA in A549 cells pretreated with NPC1 inhibitors; format: cell-based, influenza virus A (H1N1); details: A549 cells pretreated before infection
[13] = test system: H1N1; experiment: Antiviral effect in normal/serum-free medium during H1N1 infection of A549 cells; format: cell-based, influenza virus A (H1N1); details: serum-free conditions
[14] = molecular target: T1, NPC1 (Homo sapiens, UniProt O15118); format: binding; details: […]; read-out: SPR KD
T1 sequence (O15118 23-1278): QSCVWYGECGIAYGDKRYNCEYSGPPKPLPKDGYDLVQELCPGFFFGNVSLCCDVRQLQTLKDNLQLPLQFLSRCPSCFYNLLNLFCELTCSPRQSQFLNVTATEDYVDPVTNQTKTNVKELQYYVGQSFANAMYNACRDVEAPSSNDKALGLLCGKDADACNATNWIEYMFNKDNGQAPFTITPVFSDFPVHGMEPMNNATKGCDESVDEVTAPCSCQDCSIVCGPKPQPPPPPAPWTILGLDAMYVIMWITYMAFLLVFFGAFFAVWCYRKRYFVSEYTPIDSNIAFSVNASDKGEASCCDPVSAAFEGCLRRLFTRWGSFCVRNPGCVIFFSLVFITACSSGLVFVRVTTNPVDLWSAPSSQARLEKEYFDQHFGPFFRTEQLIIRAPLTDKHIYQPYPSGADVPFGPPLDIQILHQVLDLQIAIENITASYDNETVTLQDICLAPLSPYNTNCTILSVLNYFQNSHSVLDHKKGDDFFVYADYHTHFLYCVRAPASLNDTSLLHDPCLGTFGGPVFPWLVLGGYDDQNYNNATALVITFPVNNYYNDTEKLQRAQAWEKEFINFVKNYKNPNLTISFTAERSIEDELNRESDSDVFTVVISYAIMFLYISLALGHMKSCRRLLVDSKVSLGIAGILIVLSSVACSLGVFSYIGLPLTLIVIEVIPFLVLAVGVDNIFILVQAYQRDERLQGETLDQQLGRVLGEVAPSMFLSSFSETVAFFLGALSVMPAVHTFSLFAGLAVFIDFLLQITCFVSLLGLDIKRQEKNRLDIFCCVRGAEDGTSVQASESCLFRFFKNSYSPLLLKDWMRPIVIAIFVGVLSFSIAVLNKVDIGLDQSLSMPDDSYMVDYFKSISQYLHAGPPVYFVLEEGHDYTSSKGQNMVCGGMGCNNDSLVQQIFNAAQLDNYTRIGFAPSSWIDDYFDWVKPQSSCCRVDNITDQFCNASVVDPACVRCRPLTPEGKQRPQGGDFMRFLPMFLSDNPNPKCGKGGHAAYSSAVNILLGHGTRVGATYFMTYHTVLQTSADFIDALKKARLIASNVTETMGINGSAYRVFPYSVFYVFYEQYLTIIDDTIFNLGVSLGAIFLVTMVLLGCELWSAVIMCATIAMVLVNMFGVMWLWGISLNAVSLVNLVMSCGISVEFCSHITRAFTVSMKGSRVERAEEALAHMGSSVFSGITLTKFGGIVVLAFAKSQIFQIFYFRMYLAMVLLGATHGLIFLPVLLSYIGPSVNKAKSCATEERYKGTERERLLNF

SMILES	EC50 [1]	GSEA NES, Sterol metabolic process ([2]; A549 cells, 10 µM, 24 h)	EC50 [3]	EC50 [4]	VSV replication (VSV-G protein, immunoblotting) [5]	EC50 [6]	EC50 [7]	EC50 [8]	VSV replication [11]	H1N1 replication [12]	further results
COc1cc2c3cc1Oc1c(OC)c(OC)cc4c1[C@@H](Cc1ccc(O)c(c1)Oc1ccc(cc1)C[C@@H]3N(C)CC2)N(C)CC4 [Bbm, berbamine]	2650 nM	2.29	360 nM	1500 nM	inhibited	107 nM	3270 nM	606 nM	–	–	GSEA NES, Response to virus ([2]; A549 cells, 10 µM, 24 h): 1.34
COc1ccc2cc1Oc1ccc(cc1)C[C@H]1c3c(cc4c(c3Oc3cc5c(cc3OC)CCN(C)[C@@H]5C2)OCO4)CCN1C [Cep, cepharanthine]	3840 nM	2.19	569 nM	998 nM	inhibited	2090 nM	3160 nM	110 nM	–	–	GSEA NES, Innate immune response ([2]; A549 cells, 10 µM, 24 h): 1.25
Cc1ccc2c(=O)c3cccc(CC(=O)O)c3oc2c1C [DMXAA]	–	–	–	–	–	–	–	–	–	–	IL-6 level in serum [9]: markedly decreased; TNF-α level in serum [9]: markedly decreased
COc1ccc2cc1Oc1ccc(cc1)C[C@H]1c3cc(c(OC)cc3CCN1C)Oc1c(O)c(OC)cc3c1[C@H](C2)N(C)CC3 [Fan, fangchinoline]	537 nM	2.04	2320 nM	1360 nM	inhibited	821 nM	2550 nM	794 nM	–	–	GSEA NES, Response to type I interferon ([2]; A549 cells, 10 µM, 24 h): 2.27; expression of antiviral immune-related genes ([2]; WT A549 cells, compared among Tet, Fan, Cep, Bbm): higher expression
CCN(CC)CCO[C@H]1CC[C@@]2(C)C(=CC[C@@H]3[C@@H]2CC[C@]2(C)C(=O)CC[C@@H]32)C1 [U18666A]	–	–	–	–	–	–	–	–	effectively blocked	effectively blocked	antiviral effect on VSV entry ([10]; MβCD pretreatment (cholesterol depleted)): abolished; antiviral effect on VSV entry ([10]; cholesterol supplementation using MβCD-cholesterol): restored inhibition; antiviral effect on H1N1 entry [13]: diminished
CN(C)CCCN1c2ccccc2CCc2ccccc21 [imipramine]	–	–	–	–	–	–	–	–	effectively blocked	effectively blocked	–
CCC(C)n1ncn(-c2ccc(N3CCN(c4ccc(OCC5COC(Cn6cncn6)(c6ccc(Cl)cc6Cl)O5)cc4)CC3)cc2)c1=O (stereo not drawn) [itraconazole]	–	–	–	–	–	–	–	–	effectively blocked	effectively blocked	Kd [14]: 8760 nM
CC[C@@H]([C@H](C)O)n1ncn(-c2ccc(N3CCN(c4ccc(OC[C@@H]5CO[C@@](Cn6cncn6)(c6ccc(F)cc6F)C5)cc4)CC3)cc2)c1=O [posaconazole]	–	–	–	–	–	–	–	–	effectively blocked	effectively blocked	–
